From US5079257A, “Indoloquinone compounds” (priority 1986, dated 1992)
Read-outs that look alike come from different tables or passages of the source.

How the values were obtained:
WiDr cells; colon tumour = assay: In vitro panel of human tumour lines (TNO): WiDr; format: cell-based; conditions: about 72 hours; note: key: -: no inhibition of cell growth; +: total cell-kill
In short: (§1)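 Cells in Dulbecco's medium with 10% foetal calf serum were seeded 48 h, then exposed continuously to increasing compound concentrations (final ethanol <1%) for about 72 h at 37° in 10% CO2. Crystal violet staining after fixation; inhibiting concentration estimated qualitatively.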

MCF7 breast cancer cells = assay: In vitro panel of human tumour lines (TNO): MCF-7; format: cell-based; conditions: about 72 hours; note: key: -: no inhibition of cell growth; +: total cell-kill
In short: as §1

L1210 = assay: In vivo L1210 experiments (TNO Rijswijk); set-up: species or system mice
Procedure: The in vivo L1210 experiments were carried out in male Balb/c X DBA.2 Fl hybrid mice at TNO, Rijswijk.
In these experiments also, the drugs were administered IP as suspensions in carboxymethyl cellulose […] as a single dose at the first day.

[1] = system: T 24 cells; bladder carcinoma; assay: In vitro panel of human tumour lines (TNO): T 24; format: cell-based; conditions: about 72 hours; note: key: -: no inhibition of cell growth; +: total cell-kill
In short: (§2)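 Cells (5×10^4/ml, Dulbecco's medium + 10% FCS) grafted 48 h, then continuously exposed to compound (Hanks'/ethanol, final ethanol <1%) for about 72 h at 37°C, 10% CO2. Crystal violet fixation/staining; inhibiting concentration estimated qualitatively over increasing doses.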

L1210 cells = assay: Lowest active dose (L1210; bioliquid assay); format: cell-based; conditions: Mus musculus, L1210, bioliquid assay
Description: The indoloquinones II (formula II) have been tested in respect of their cytotoxic activity against L1210 cells and R-1 cells (Rhabdomyosarcoma Cells) in a bioliquid assay at the department of oncology of the Free University of Amsterdam (Table I). In addition to this seven compounds (E.O. 1, E.O. 2, E.O. 4, E.O. 7, E.O. 9, E.O. 16 and E.O. 17) have been tested on L1210 activity in a clonogenic assay at TNO, Rijswijk. Further, the lowest active doses of the compounds E.O. 1, E.O. 2, E.O. 4 and E.O. 9 have been determined at TNO Rijswijk, according to the method described by Lamberts et al. [Oncology, 40, 301 (1983)]. (Table II). Eight indoloquinones (E.O. 1, E.O. 2, E.O. 4, E.O. 4A, E.O. 8, E.O. 9, E.O. 33 and E.O. 35) have been tested in a panel of five human tumour lines (TNO Rijswijk; Table III). From the latter group three indoloquinones (E.O. 1, E.O. 4 and E.O. 9) have been selected for a cytotoxicity study, involving five slowly growing human tumour lines (University of Freiburg; Table IV).
The lowest active doses for the compounds E.O. 1, E.O. 2, E.O. 4 and E.O. 9 were determined according to the method described by Lamberts et al. [Oncology, 40, 301 (1983)]. In this method, L1210 cells were grown in a series of wells in a culture medium and in the presence of the compound to be tested, as in the determination of L1210 activity in a bioliquid assay reported above, but the compound was present in respective wells in a different concentration, the concentrations extending over an appropriate range. After a suitable incubation period, the lowest active dose for the compound in question was determined by comparing the diameter of each of the precipitation spots with that of a control containing only the culture and the cell suspension, a smaller diameter indicating growth inhibition (Table II).

[2] = system: A 204 cells; rhabdomyosarcoma; assay: In vitro panel of human tumour lines (TNO): A 204; format: cell-based; conditions: about 72 hours; note: key: -: no inhibition of cell growth; +: total cell-kill
In short: as §2

Renal tumour line = assay: Colony inhibition in vitro, continuous drug exposure (Freiburg); format: cell-based; conditions: Homo sapiens, read-out: colony formation treated/control (T/C), Renal; for activity at 0.1 µg/mL: 0.1 μg/ml; for activity at 1 µg/mL: 1.0 μg/ml
Procedure: (§3) Three indoloquinones were tested at the University of Freiburg with respect to their in vitro inhibition of colony formation of the following five human tumour cell lines: lung-NSCLC, breast, renal and two colon lines.

Colon 2 tumour line = assay: as above; format: cell-based; conditions: Homo sapiens, read-out: colony formation treated/control (T/C), Colon 2; for activity at 0.01 µg/mL: 0.01 μg/ml; for activity at 0.1 µg/mL: 0.1 μg/ml; for activity at 1 µg/mL: 1.0 μg/ml
Procedure: as §3

[3] = system: Mammary (breast) tumour line; assay: as above; format: cell-based; conditions: Homo sapiens, read-out: colony formation treated/control (T/C), Mammary; for activity at 0.01 µg/mL: 0.01 μg/ml; for activity at 0.1 µg/mL: 0.1 μg/ml; for activity at 1 µg/mL: 1.0 μg/ml
Procedure: as §3

Colon 1 tumour line = assay: as above; format: cell-based; conditions: Homo sapiens, read-out: colony formation treated/control (T/C), Colon 1; for activity at 0.01 µg/mL: 0.01 μg/ml; for activity at 0.1 µg/mL: 0.1 μg/ml; for activity at 1 µg/mL: 1.0 μg/ml
Procedure: as §3

IgR37 cells melanoma = assay: In vitro panel of human tumour lines (TNO): IgR-37; format: cell-based; conditions: about 72 hours; note: key: -: no inhibition of cell growth; +: total cell-kill
In short: as §2

[4] = duplicate experiment, read-out: LAD 2 (lowest active dose)
[5] = read-out: LAD 1 (lowest active dose)

Row | SMILES | in vitro activity score, WiDr (WiDr cells; colon tumour; 0.01 μg/ml) | in vitro activity score, WiDr (WiDr cells; colon tumour; 0.1 μg/ml) | in vitro activity score, WiDr (WiDr cells; colon tumour; 1.0 μg/ml) | in vitro activity score, WiDr (WiDr cells; colon tumour; 10 μg/ml) | in vitro activity score, MCF-7 (MCF7 breast cancer cells; 0.01 μg/ml) | in vitro activity score, MCF-7 (MCF7 breast cancer cells; 0.1 μg/ml) | in vitro activity score, MCF-7 (MCF7 breast cancer cells; 1.0 μg/ml) | in vitro activity score, MCF-7 (MCF7 breast cancer cells; 10 μg/ml) | in vitro activity score, T 24 ([1]; 0.01 μg/ml) | in vitro activity score, T 24 ([1]; 0.1 μg/ml) | in vitro activity score, T 24 ([1]; 1.0 μg/ml) | in vitro activity score, T 24 ([1]; 10 μg/ml) | minimal effective concentration (L1210 cells; [4]) [µg/mL] | minimal effective concentration (L1210 cells; [5]) [µg/mL] | in vitro activity score, A 204 ([2]; 0.01 μg/ml) | in vitro activity score, A 204 ([2]; 0.1 μg/ml) | in vitro activity score, A 204 ([2]; 10 μg/ml) | in vitro activity score, IgR-37 (IgR37 cells melanoma; 0.01 μg/ml) | in vitro activity score, IgR-37 (IgR37 cells melanoma; 0.1 μg/ml) | in vitro activity score, IgR-37 (IgR37 cells melanoma; 10 μg/ml) | also measured
1 | Cn1c(/C=C/CO)c(CO)c2c1C(=O)C=C(N1CC1)C2=O [E.O. 9, 5-Aziridino-3-hydroxymethyl-1-methyl-2-[1H-indole-4,7-dione]prop-β-en-α-ol] | - | + | + | + | - | + | + | + | - | + | + | + | 1.02 | 0.512 to 1.02 | - | + | + | + | + | + | % T/C (L1210; 6, 8, 10 mg/kg IP single dose): tox.; response vs control in vivo at 2 mg/kg (L1210; Mus musculus, L1210, 2 mg/kg IP single dose, read-out: % T/C): 144%; response vs control in vivo at 4 mg/kg (L1210; Mus musculus, L1210, 4 mg/kg IP single dose, read-out: % T/C): 100%; in vitro activity score, A 204 ([2]; 1.0 μg/ml): +; activity at 0.01 µg/mL (Renal tumour line; 0.01 μg/ml): 123%; activity at 0.1 µg/mL (Renal tumour line): 8%; activity at 1 µg/mL (Renal tumour line): 0%; activity at 0.01 µg/mL (Colon 2 tumour line): 136%; activity at 0.1 µg/mL (Colon 2 tumour line): 20%; activity at 1 µg/mL (Colon 2 tumour line): 1%; activity at 0.01 µg/mL [3]: 38%; activity at 0.1 µg/mL [3]: 2%; activity at 1 µg/mL [3]: 0%; activity at 0.01 µg/mL (Colon 1 tumour line): 51%; activity at 0.1 µg/mL (Colon 1 tumour line): 47%; activity at 1 µg/mL (Colon 1 tumour line): 9%; in vitro activity score, IgR-37 (IgR37 cells melanoma; 1.0 μg/ml): +
2 | COC1=CC(=O)c2c(c(COC(C)=O)c(/C=C/COC(C)=O)n2C)C1=O [E.O. 1, 3-Acetoxymethyl-5-methoxy-1-methyl-2-[1H-indole-4,7-dione]prop-β-en-α-yl acetate] | - | - | - | + | - | - | - | + | - | - |  |  | 1.02 to 2.05 | 1.02 to 2.05 | - | - | + | - | - | + | activity at 0.1 µg/mL (Renal tumour line): 68%; activity at 1 µg/mL (Renal tumour line): 0%; activity at 0.01 µg/mL (Colon 2 tumour line): 71%; activity at 0.1 µg/mL (Colon 2 tumour line): 24%; activity at 1 µg/mL (Colon 2 tumour line): 3%; activity at 0.01 µg/mL [3]: 99%; activity at 0.1 µg/mL [3]: 0%; activity at 1 µg/mL [3]: 0%; activity at 0.01 µg/mL (Colon 1 tumour line): 108%; activity at 0.1 µg/mL (Colon 1 tumour line): 37%; activity at 1 µg/mL (Colon 1 tumour line): 21%
3 | COC(=O)OC/C=C/c1c(COC(=O)OC)c2c(n1C)C(=O)C=C(OC)C2=O [E.O. 2, Methyl 5-methoxy-3-methoxycarbonyloxymethyl-1-methyl-2-[1H-indole-4,7 dione]prop-β-en-α-yl carbonate] | - | - | - | + | - | - | - | + | - | - | - | + | 1.02 to 2.05 | 1.02 to 2.05 | - | - | + | - | - | + | % T/C (L1210; 80 mg/kg IP single dose): tox.; response vs control in vivo at 30 mg/kg (L1210; Mus musculus, L1210, 30 mg/kg IP single dose, read-out: % T/C): 100%; response vs control in vivo at 40 mg/kg (L1210; Mus musculus, L1210, 40 mg/kg IP single dose, read-out: % T/C): 113%; response vs control in vivo at 60 mg/kg (L1210; Mus musculus, L1210, 60 mg/kg IP single dose, read-out: % T/C): 100%; in vitro activity score, A 204 ([2]; 1.0 μg/ml): -; in vitro activity score, IgR-37 (IgR37 cells melanoma; 1.0 μg/ml): -
